Reference: patent publication US20230416258A1, “BENZ[…], AND PREPARATION METHOD THEREFOR AND USE THEREOF” (CHINA PHARMACEUTICAL UNIVERSITY, priority 2020, published 2023)

System: KM mice
Experiment: Test for drug-induced disappearance of righting reflex in mice
Assay type: in vivo
Conditions: single rapid bolus via tail vein
Procedure, shortened: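 Latency to, and duration of, righting reflex loss were recorded after one fast tail-vein bolus. Animals: randomized female KM mice weighing 18–25 g.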

Compound | Duration (30 mg/kg) [min] | Latency (30 mg/kg) [min] | Duration (15 mg/kg) [min] | Latency (15 mg/kg) [min]
COC(=O)CC[C@@H]1N=C(c2ccccc2Cl)c2cc(Cl)ccc2-n2c(SCCN3CCCCC3)nnc21 [Compound 122, methyl (S)-3-(8-chloro-6-(2-chlorophenyl)-1-(2-((piperidin-1-yl)ethyl)thio)-4H-benzo[f][1,2,4]triazolo[4,3-a][1,4]diazepin-4-yl)propionate] | 28.06 | 0.30 | – | –
COC(=O)CC[C@@H]1N=C(c2ccccc2F)c2cc(Br)ccc2-n2c(SCCN3CCCCC3)nnc21 [Compound 123, methyl (S)-3-(8-bromo-6-(2-fluorophenyl)-1-(2-((piperidin-1-yl)ethyl)thio)-4H-benzo[f][1,2,4]triazolo[4,3-a][1,4]diazepin-4-yl)propionate] | 53.03 | 0.23 | 1.38 | 0.30
COC(=O)CC[C@@H]1N=C(c2ccccc2Cl)c2cc(Cl)ccc2-n2c(SCc3ccncc3)nnc21 [Compound 124, methyl (S)-3-(8-chloro-6-(2-chlorophenyl)-1-(2-((pyridin-4-yl)methyl)thio)-4H-benzo[f][1,2,4]triazolo[4,3-a][1,4]diazepin-4-yl)propionate] | 13.31 | 0.23 | 7.67 | 0.18
COC(=O)CC[C@@H]1N=C(c2ccccc2F)c2cc(Br)ccc2-n2c(SCc3ccncc3)nnc21 [Compound 125, methyl (S)-3-(8-bromo-6-(2-fluorophenyl)-1-(2-((pyridin-4-yl)methyl)thio)-4H-benzo[f][1,2,4]triazolo[4,3-a][1,4]diazepin-4-yl)propionate] | 7.81 | 0.19 | – | –
COC(=O)CC[C@@H]1N=C(c2ccccc2Cl)c2cc(Cl)ccc2-n2c(SCCN3CCC(F)(F)CC3)nnc21 [Compound 127, methyl (S)-3-(8-chloro-6-(2-chlorophenyl)-1-(2-((4,4-difluoropiperidin-1-yl)ethyl)thio)-4H-benzo[f][1,2,4]triazolo[4,3-a][1,4]diazepin-4-yl)propionate] | 18.11 | 0.43 | – | –
COC(=O)CC[C@@H]1N=C(c2ccccc2F)c2cc(Br)ccc2-n2c(SCCN3CCC(F)(F)CC3)nnc21 [Compound 128] | 7.98 | 0.42 | – | –
COC(=O)CC[C@@H]1N=C(c2ccccc2Cl)c2cc(Cl)ccc2-n2c(SC(=O)N3CCN(C)CC3)nnc21 [Compound 130, methyl (S)-3-(8-chloro-6-(2-chlorophenyl)-1-(2-(4-methylpiperazine-1-carbonyl)thio)-4H-benzo[f][1,2,4]triazolo[4,3-a][1,4]diazepin-4-yl)propionate] | 18.27 | 0.52 | – | –
COC(=O)CC[C@@H]1N=C(c2ccccc2F)c2cc(Br)ccc2-n2c(SC(=O)N3CCN(C)CC3)nnc21 [Compound 131] | 6.84 | 0.56 | – | –
CCN(CC)CCCSc1nnc2n1-c1ccc(Cl)cc1C(c1ccccc1Cl)=N[C@H]2CCC(=O)OC [Compound 132, methyl (S)-3-(8-chloro-6-(2-chlorophenyl)-1-(3-((diethylamino)propyl)thio)-4H-benzo[f][1,2,4]triazolo[4,3-a][1,4]diazepin-4-yl)propionate] | 18.05 | 0.87 | – | –
COC(=O)CC[C@@H]1N=C(c2ccccc2Cl)c2cc(Cl)ccc2-n2c(SCCN(C)C)nnc21 [Compound 133, methyl (S)-3-(8-chloro-6-(2-chlorophenyl)-1-(2-((dimethylamino)ethyl)thio)-4H-benzo[f][1,2,4]triazolo[4,3-a][1,4]diazepin-4-yl)propionate] | 2.24 | 0.26 | – | –
COC(=O)CC[C@@H]1N=C(c2ccccc2F)c2cc(Br)ccc2-n2c(SCCN(C)C)nnc21 [Compound 134, methyl (S)-3-(8-bromo-6-(2-fluorophenyl)-1-(2-((dimethylamino)ethyl)thio)-4H-benzo[f][1,2,4]triazolo[4,3-a][1,4]diazepin-4-yl)propionate] | 6.54 | 0.27 | – | –
O=C(CC[C@@H]1N=C(c2ccccc2Cl)c2cc(Cl)ccc2-n2c1n[nH]c2=S)OCCN1CCOCC1 [Compound 137, (S)-3-(8-chloro-6-(2-chlorophenyl)-1-thio-2,4-dihydro-1H-benzo[f][1,2,4]triazolo[4,3-a][1,4]diazepin-4-yl)propionic acid-2-morpholinoethyl ester] | 21.45 | 0.67 | – | –
COC(=O)CC[C@@H]1N=C(c2ccccc2Cl)c2cc(Cl)ccc2-n2c(SCCn3ccnc3)nnc21 [Compound 138, methyl (S)-3-(8-chloro-6-(2-chlorophenyl)-1-(2-((1H-imidazol-1-yl)ethyl)thio)-4H-benzo[f][1,2,4]triazolo[4,3-a][1,4]diazepin-4-yl)propionate] | 6.94 | 0.27 | – | –
COC(=O)CC[C@@H]1N=C(c2ccccc2F)c2cc(Br)ccc2-n2c(SCCn3ccnc3)nnc21 [Compound 139, methyl (S)-3-(8-bromo-6-(2-fluorophenyl)-1-(2-((1H-imidazol-1-yl)ethyl)thio)-4H-benzo[f][1,2,4]triazolo[4,3-a][1,4]diazepin-4-yl)propionate] | 19.99 | 0.38 | – | –
COC(=O)CC[C@@H]1N=C(c2ccccc2Cl)c2cc(Cl)ccc2-n2c(SCCn3cccc3)nnc21 [Compound 140, methyl (S)-3-(8-chloro-6-(2-chlorophenyl)-1-(2-((1H-pyrrol-1-yl)ethyl)thio)-4H-benzo[f][1,2,4]triazolo[4,3-a][1,4]diazepin-4-yl)propionate] | 21.65 | 0.45 | – | –
CCN(C)C(=O)Sc1nnc2n1-c1ccc(Cl)cc1C(c1ccccc1Cl)=N[C@H]2CCC(=O)OC [Compound 142, methyl (S)-3-(8-chloro-6-(2-chlorophenyl)-1-((ethyl(methyl)carbamoyl)thio)-4H-benzo[f][1,2,4]triazolo[4,3-a][1,4]diazepin-4-yl)propionate] | 10.35 | 0.21 | – | –
COC(=O)CC[C@@H]1N=C(c2ccccc2Cl)c2cc(Cl)ccc2-n2c(SCCC(=O)N(C)C)nnc21 [Compound 143, methyl (S)-3-(8-chloro-6-(2-chlorophenyl)-1-(3-((dimethylamino)-3-oxopropyl)thio)-4H-benzo[f][1,2,4]triazolo[4,3-a][1,4]diazepin-4-yl)propionate] | 9.62 | 0.64 | – | –
COC(=O)CC[C@@H]1N=C(c2ccccc2Cl)c2cc(Cl)ccc2-n2c(SCC3=NCCN3)nnc21 [Compound 144, methyl (S)-3-(8-chloro-6-(2-chlorophenyl)-1-(((4,5-dihydro-1H-imidazol-2-yl)methyl)thio)-4H-benzo[f][1,2,4]triazolo[4,3-a][1,4]diazepin-4-yl)propionate] | 5.32 | 0.45 | – | –
COC(=O)CC[C@@H]1N=C(c2ccccc2Cl)c2cc(Cl)ccc2-n2c1n[nH]c2=S [Tautomer of compound 2, methyl (S)-3-(8-chloro-6-(2-chlorophenyl)-1-thio-2,4-dihydro-1H-benzo[f][1,2,4]triazolo[4,3-a][1,4]diazepin-4-yl)propionate] | 10.35 | 1.10 | – | –
